One compound from patent US20210315882A1, “METHODS OF TREATING A PATIENT HAVING PARKINSON'S DISEASE” (Sunovion Pharmaceuticals Inc., priority 2019, published 2021) can be followed below.

In this experiment the test system is patients with Parkinson's disease and “OFF” episodes. The experiment is described as follows: Post hoc analysis of Phase 3 study: motor responses to apomorphine sublingual film compared with levodopa. Type of experiment: in vivo, human. The source says:
Patients described in Table 9 were enrolled in a study. At screening, patients attended morning in-office visits in the “OFF” state and received their usual morning dose of levodopa without adjunctive PD medications and were both self- and investigator-assessed for a FULL “ON” response (levodopa challenge; FIG. 9). An “OFF” state was accomplished by withholding levodopa and any other adjunctive PD medications after midnight the night before each morning in-office visit.

On to `N[C@@H](Cc1ccc(O)c(O)c1)C(=O)O` [levodopa], for which the “Responder rate (≥30% decrease in MDS-UPDRS III score from predose)” value was determined as 18% (15 minutes postdose) and 50% (30 minutes postdose). The “time of mean peak response across the time points measured” value (MDS-UPDRS III score) worked out at 95 min. Besides, the “magnitude of observed peak response in MDS-UPDRS III score (mean±SE)” value (across the time points measured) is −27.9±1.20. Besides, where the note is “open-label, film at dose giving FULL “ON”, levodopa usual morning dose, n = 109”, the “change in MDS-UPDRS III score from predose at 15 minutes postdose (mean±SE)” value is recorded as −6.0±0.72.
